pKi: −log10 of the molar value. Structures can show the parent of a compound that is named as a salt.

This passage reports Ki results from US8030321B2, “Benzofuro- and benzothienopyrimidine modulators of the histamine H4 receptor” (Janssen Pharmaceutica, NV, priority 2006, dated 2011).

T1 sequence (Q9H3N8 whole entry): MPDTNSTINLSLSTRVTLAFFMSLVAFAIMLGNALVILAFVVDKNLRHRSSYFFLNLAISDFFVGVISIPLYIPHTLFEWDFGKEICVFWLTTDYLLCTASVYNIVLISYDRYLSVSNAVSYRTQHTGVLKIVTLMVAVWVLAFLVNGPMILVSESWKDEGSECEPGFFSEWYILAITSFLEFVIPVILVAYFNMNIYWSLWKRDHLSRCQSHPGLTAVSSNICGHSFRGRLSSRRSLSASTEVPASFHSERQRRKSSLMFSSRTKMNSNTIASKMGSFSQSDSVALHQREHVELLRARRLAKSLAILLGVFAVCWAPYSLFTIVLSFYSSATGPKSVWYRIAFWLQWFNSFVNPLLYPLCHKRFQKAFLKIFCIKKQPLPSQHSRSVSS

The first assay has as its target T1, human histamine H4 receptor (Homo sapiens, UniProt Q9H3N8).
T1 construct: expressed in transfected cells; host or cells: SK-N-MC cells or COS7 cells, transiently transfected; cell membranes used
The experiment in a line: Binding Assay on Recombinant Human Histamine H4 Receptor.
Conditions: not given
The method, then: Binding Assay on Recombinant Human Histamine H4 Receptor
SK-N-MC cells or COS7 cells were transiently transfected with pH4R and grown in 150 cm^2 tissue culture dishes. Cells were washed with saline solution, scraped with a cell scraper and collected by centrifugation (1000 rpm, 5 min). Cell membranes were prepared by homogenization of the cell pellet in 20 mM Tris-HCl with a polytron tissue homogenizer for 10 sec at high speed. Homogenate was centrifuged at 1000 rpm for 5 min at 4° C. […] The final pellet was resuspended in 50 mM Tris-HCl. Cell membranes were incubated with ^3H-histamine (5-70 nM) in the presence or absence of excess histamine (10,000 nM). […] Membranes were harvested by rapid filtration over Whatman GF/C filters and washed 4 times with ice-cold 50 mM Tris HCl. Filters were then dried, mixed with scintillant and counted for radioactivity. SK-N-MC or COS7 cells expressing human histamine H4 receptor were used to measure the affinity of binding of other compounds and their ability to displace ^3H-ligand binding by incubating the above-described reaction in the presence of various concentrations of inhibitor or compound to be tested.
One may read the pKi as the Ki on a negative log10 scale, so that one unit is a factor of ten. On to `COc1ccc2oc3c(N4C[C@H]5CCN[C@H]5C4)nc(N)nc3c2c1` (relative stereo) [Example 114, (cis)-4-(Hexahydro-pyrrolo[3,4-b]pyrrol-5-yl)-8-methoxy-benzo[4,5]furo[3,2-d]pyrimidin-2-ylamine trifluoroacetic acid salt], for which the pKi was 7.04. Turning to `Nc1nc(N2CC3CCCNC3C2)c2oc3ccc(Cl)cc3c2n1` (centres unmarked) [Example 9, 8-Chloro-4-(octahydro-pyrrolo[3,4-b]pyridin-6-yl)-benzo[4,5]furo[3,2-d]pyrimidin-2-ylamine], the pKi was 8.68.

The same assay, now with this note: competition binding with 3H-histamine (5 nM), membranes of SK-N-MC or COS7 cells expressing human H4 receptor; Cheng-Prusoff, KD 5 nM; average of results obtained; read-out: Ki.
In the case of `CC1CN(c2nc(N)nc3c2oc2ccc(Cl)cc23)CC(C)N1` (mixture of isomers) [Example 128, 8-Chloro-4-(3,5-dimethyl-piperazin-1-yl)-benzo[4,5]furo[3,2-d]pyrimidin-2-ylamine trifluoroacetic acid salt], the pKi was under 5.00.

Consider `Nc1nc(N2CC[C@@H]3CNC[C@@H]32)c2oc3ccc(Cl)cc3c2n1` (relative stereo) [Example 95, (cis)-8-Chloro-4-(hexahydro-pyrrolo[3,4-b]pyrrol-1-yl)-benzo[4,5]furo[3,2-d]pyrimidin-2-ylamine trifluoroacetic acid salt], for which the pKi was 6.85.

As to `COc1ccc2oc3c(N4C[C@H]5CCCN[C@H]5C4)nc(N)nc3c2c1` (relative stereo) [Example 105, (cis)-8-Methoxy-4-(octahydro-pyrrolo[3,4-b]pyridin-6-yl)-benzo[4,5]furo[3,2-d]pyrimidin-2-ylamine trifluoroacetic acid salt], the pKi is 7.85. As for `OCCNc1nc(N2C[C@H]3CCCN[C@H]3C2)c2oc3ccc(Cl)cc3c2n1` (relative stereo) [Example 117, (cis)-2-[8-Chloro-4-(octahydro-pyrrolo[3,4-b]pyridin-6-yl)-benzo[4,5]furo[3,2-d]pyrimidin-2-ylamino]-ethanol], the pKi was 6.03. For the compound `CN1CCN(c2nc(N)nc3c2oc2ccc(Cl)cc23)CC1` [Example 1, 8-Chloro-4-(4-methyl-piperazin-1-yl)-benzo[4,5]furo[3,2-d]pyrimidin-2-ylamine], the negative-log Ki (pKi) is 9.85. In the case of `Nc1nc(N2CC3CCCNC3C2)c2oc3c(Cl)cc(Cl)cc3c2n1` (centres unmarked) [Example 2, 6,8-Dichloro-4-(octahydro-pyrrolo[3,4-b]pyridin-6-yl)-benzo[4,5]furo[3,2-d]pyrimidin-2-ylamine trifluoroacetic acid salt], the pKi is 8.15.

Consider `CC(C)N1CCCN(c2nc(N)nc3c2oc2ccc(Cl)cc23)CC1` [Example 3, 8-Chloro-4-(4-isopropyl-[1,4]diazepan-1-yl)-benzo[4,5]furo[3,2-d]pyrimidin-2-ylamine trifluoroacetic acid salt], for which the pKi was 7.12. Same read-out and setting: for `Nc1nc(N2CCC(N)C2)c2oc3c(Cl)cc(Cl)cc3c2n1` (centres unmarked) [Example 4, 4-(3-Amino-pyrrolidin-1-yl)-6,8-dichloro-benzo[4,5]furo[3,2-d]pyrimidin-2-ylamine trifluoroacetic acid salt] the value was 7.51. With `CN[C@@H]1CCN(c2nc(N)nc3c2oc2c(Cl)cc(Cl)cc23)C1` [Example 5, (R)-6,8-Dichloro-4-(3-methylamino-pyrrolidin-1-yl)-benzo[4,5]furo[3,2-d]pyrimidin-2-ylamine trifluoroacetic acid salt], the pKi was 8.72.

On to `CN[C@@H]1CCN(c2nc(N)nc3c2oc2ccccc23)C1` [Example 6, (R)-4-(3-Methylamino-pyrrolidin-1-yl)-benzo[4,5]furo[3,2-d]pyrimidin-2-ylamine citric acid salt], for which the pKi was 8.47.

With `Nc1nc(N2CCCNCC2)c2oc3ccc(Cl)cc3c2n1` [Example 7, 8-Chloro-4-[1,4]diazepan-1-yl-benzo[4,5]furo[3,2-d]pyrimidin-2-ylamine trifluoroacetic acid salt], the pKi was 8.96. For `Nc1nc(N2CCN3CCCCC3C2)c2oc3ccc(Cl)cc3c2n1` (centres unmarked) [Example 8, 8-Chloro-4-(octahydro-pyrido[1,2-a]pyrazin-2-yl)-benzo[4,5]furo[3,2-d]pyrimidin-2-ylamine], the pKi is 7.80.
